Results reported in publication PMC5507300, “Antibacterial small molecules targeting the conserved TOPRIM domain of DNA gyrase” (PLoS ONE, 2017).
In brackets after ≈: the same amount, converted by molar mass.

Assays:
Type in all cases: cell-based
E. coli HS151 (ΔtolC) = experiment: microbe, parasite or virus in culture; conditions: Escherichia coli
Description: (§1) E. coli HS151 (ΔtolC) has been described previously. […] E. coli BW25113 and the Keio gene deletion collection based on BW25113 [25] were obtained from Thermo Fisher Scientific (Waltham, MA) and described in [26]. The plasmid-borne FQ resistance determinant, qnrVC3 [27], was kindly provided by D. Hooper (Massachusetts General Hospital). […] MB2884 (E. coli) and CL15245 (K. pneumoniae) are clinical isolates from the Merck & Co., Inc., Kenilworth, NJ, USA, strain collection. S. aureus COL is a methicillin-resistant clinical isolate.
(§2) Compound doubling dilutions were prepared in 100% DMSO (Sigma Aldrich) and 2 μL of each dilution was transferred to a 96-well plate with lid (Thermo Scientific). Inoculum for all MIC testing was prepared using the BBL Prompt Inoculation System (Becton Dickinson, Franklin Lakes, NJ USA) as described by the manufacturer to produce a suspension of cells at approximately 1.5 x 10^8 colony forming units (CFU)/mL [34–36] and a further dilution (1:1000) was made into cation adjusted Mueller-Hinton broth (CAMH broth, Becton-Dickinson). One hundred μL of this inoculum were then transferred to each well of the 96-well plate containing diluted compound (above). Plates were covered and incubated overnight (18 hrs.) at 37°C.

[1] = test system: E. coli GYR103 GyrB L446Q; experiment: microbe, parasite or virus in culture; conditions: Escherichia coli
Description: (§3) E. coli HS151 (ΔtolC) has been described previously. Gyrase inhibitor-resistant isolates (GYR101-108) were derived by selection for spontaneous resistance to MRL-770 or MRL-423 (Fig 1) in E. coli HS151 as described below. E. coli BW25113 and the Keio gene deletion collection based on BW25113 [25] were obtained from Thermo Fisher Scientific (Waltham, MA) and described in [26]. The plasmid-borne FQ resistance determinant, qnrVC3 [27], was kindly provided by D. Hooper (Massachusetts General Hospital). MB9796 (A. baumannii) is a derivative of MB9797 (ATCC19606) lacking lipopolysaccharide. The efflux-defective P. aeruginosa strain MB5890 (CB398) is a derivative of MB5919 (PAO1). MB2884 (E. coli) and CL15245 (K. pneumoniae) are clinical isolates from the Merck & Co., Inc., Kenilworth, NJ, USA, strain collection. S. aureus COL is a methicillin-resistant clinical isolate.
as §2
After the agar solidified, 5 μL of a saturated bacterial culture, grown in CAMH broth, were dispensed on the agar surface and allowed to dry at room temperature. […] To select for resistance, a 100 mm petri dish was filled with 25 mL CAMH agar containing 8 μg/mL MRL-770 or 0.5 μg/mL MRL-423 (Fig 1). The cells in 1 mL of an overnight culture of E. coli HS151 (~10^9 CFU/mL) were concentrated by centrifugation and spread onto the surface of an MRL-770 or MRL-423 containing plate. After the surface dried at room temperature the plate was incubated at 37°C overnight. Any colonies that arose were counted and an approximate frequency of resistance was calculated after confirming resistance by restreaking on media containg compound as well as measuring MICs (see Results). Genomic DNA from the parent strain (E. coli HS151) and purified (restreaked) resistant isolates was obtained with a GeneJET genomic DNA purification kit according to the manufacturer’s instructions (Fisher Scientific). Assembled whole genome mutant sequences were then compared to the parent strain and polymorphisms were identified as described.

[2] = test system: E. coli GYR101 GyrB F513L; experiment: microbe, parasite or virus in culture; conditions: Escherichia coli
Description: as §1, §2
(§4) After the agar solidified, 5 μL of a saturated bacterial culture, grown in CAMH broth, were dispensed on the agar surface and allowed to dry at room temperature. […] After the surface dried at room temperature the plate was incubated at 37°C overnight. […] Genomic DNA from the parent strain (E. coli HS151) and purified (restreaked) resistant isolates was obtained with a GeneJET genomic DNA purification kit according to the manufacturer’s instructions (Fisher Scientific). Assembled whole genome mutant sequences were then compared to the parent strain and polymorphisms were identified as described.

[3] = test system: E. coli GYR102 GyrB E466EV; experiment: microbe, parasite or virus in culture; conditions: Escherichia coli
Description: as §1, §2, §4

[4] = test system: E. coli GYR104 GyrB L470I; experiment: microbe, parasite or virus in culture; conditions: Escherichia coli
Description: as §1, §2, §4

[5] = test system: E. coli GYR105 GyrB T469K; experiment: microbe, parasite or virus in culture; conditions: Escherichia coli
Description: as §1, §2, §4

[6] = test system: E. coli GYR106 GyrB F513L/A468V; experiment: microbe, parasite or virus in culture; conditions: Escherichia coli
Description: as §1, §2, §4

[7] = test system: E. coli GYR107 GyrB F513L/L422V; experiment: microbe, parasite or virus in culture; conditions: Escherichia coli
Description: as §1, §2, §4

[8] = test system: E. coli GYR108 GyrB L470I/V467L; experiment: microbe, parasite or virus in culture; conditions: Escherichia coli
Description: as §1, §2, §4

E. coli CIP101 GyrA D87N = experiment: microbe, parasite or virus in culture; conditions: Escherichia coli
Experimental: as §2

[9] = test system: A. baumannii ΔlpxC MB9796; experiment: Broth microdilution MIC, A. baumannii MB9796; conditions: Acinetobacter baumannii
Description: as §3, §2

[10] = test system: A. baumanii MB9797 (ATCC19606); experiment: Broth microdilution MIC, A. baumannii MB9797; conditions: Acinetobacter baumannii
Description: as §3, §2

S. aureus (MRSA) COL = experiment: Broth microdilution MIC, S. aureus COL; conditions: Staphylococcus aureus, MRSA
Description: as §3, §2

E. coli HS151 (qnrVC) = experiment: Broth microdilution MIC, E. coli HS151 (qnrVC); conditions: Escherichia coli
Description: as §3, §2

E. coli BW25113 ΔtolC = experiment: Broth microdilution MIC, E. coli BW25113 ΔtolC; conditions: Escherichia coli
Description: as §3, §2
The yacG deletion allele from the Keio collection was amplified by PCR (primers: […] and […]) and moved to BW25113 ΔtolC as described below. The E. coli strain BW25113 ΔtolC containing pKD46 [25] was used to inoculate SOB (Invitrogen)/0.2% w/v arabinose (Sigma Aldrich)/ampicillin (100 μg/mL) and grown overnight at 30°C. The overnight culture was then diluted 1/40 into 20 mL fresh SOB/0.2% w/v arabinose/ampicillin (100 μg/mL) and grown at 30°C while shaking for ~3 hrs until OD600 = 0.5. […]

[11] = test system: E. coli BW25113 ΔtolC/ΔyacG; experiment: Broth microdilution MIC, E. coli BW25113 ΔtolC/ΔyacG; conditions: Escherichia coli, BW25113
Experimental: as §2
The yacG deletion allele from the Keio collection was amplified by PCR (primers: […] and […]) and moved to BW25113 ΔtolC as described below. The E. coli strain BW25113 ΔtolC containing pKD46 [25] was used to inoculate SOB (Invitrogen)/0.2% w/v arabinose (Sigma Aldrich)/ampicillin (100 μg/mL) and grown overnight at 30°C. The overnight culture was then diluted 1/40 into 20 mL fresh SOB/0.2% w/v arabinose/ampicillin (100 μg/mL) and grown at 30°C while shaking for ~3 hrs until OD600 = 0.5. Cells were pelleted by centrifugation at 4000 rpm for 10 min, washed with 40 mL ice cold sterile, distilled H2O, then 3 x 1 mL ice cold 10% glycerol followed by centrifugation at 5000 g for 3 minutes. The pellet was resuspended in 100 μL of 10% glycerol (1/200 of starting culture). For transformation, 5 μL of gel purified PCR product was added to 50 μL cells, mixed, and immediately electroporated in a 0.2 cm gap cuvette at 2.5kV, 25 μF, 200 Ω (BioRad, Hercules, CA USA). Electroporated cells were recovered in 1 mL SOC (Invitrogen)/0.2% arabinose at 37°C for 2 hours with shaking. Cells in amounts of 50 and 950 μL were then plated on LB agar supplemented with kanamycin (25 μg/mL) and incubated overnight at 37°C. Correct gene replacements were verified by PCR.

[12] = test system: DNA synthesis in E. coli JL553; experiment: Macromolecule synthesis labeling; conditions: E. coli JL553, 25 min exposure, labeled precursor incorporation
Experimental: Macromolecule synthesis profiling was conducted as described by Montgomery, et al. with minor modifications. E. coli strain JL553 (tolC, lysE) was used to measure inhibition of DNA, RNA, protein, peptidoglycan and phospholipid biosynthesis while E. coli MB5500 (lpxC [envA1], galE; Merck & Co., Inc., Kenilworth, NJ, USA, strain collection) was used to measure inhibition of lipopolysaccharide biosynthesis. Radioisotope labeled precursors were used at the following final concentrations [2-^14C]-thymidine (2.5 μCi/mL), [^14C(U)]-uridine (0.5 μCi/mL), L-[4, 5-^3H]-leucine (5 μCi/mL), [2-^3H]-glycerol (2 μCi/mL), [^3H]-diaminopimelic acid (3 μCi/mL), D-[1-^14C]-galactose (0.5 μCi/mL). Compound concentrations (3-fold serial dilutions) were chosen to place the minimum inhibitory concentration (see below) near the center of the dose range. Labeled cultures were incubated with compound for 25 min; stopped with trichloroacetic acid, filtered and incorporation was measured as described. Percent inhibition of incorporation was calculated relative to an untreated control culture for each labeled precursor and plotted with GraphPad Prism.

E. coli HS151 = experiment: In vitro time-dependent bactericidal study; conditions: E. coli HS151; at the 4 hour time point
Experimental: A culture of E. coli HS151 in CAMH broth was grown overnight (18 hrs.) at 37°C, diluted 1:10,000 in 200 mL of fresh CAMH broth and further incubated for 1 hour at 37°C with shaking. A time-zero sample was then removed and 20 mL portions of the remaining culture were transferred into 125 mL vented flasks to which were added MRL-1082 or control antibiotics, at the indicated concentrations. These flasks were then incubated at 37°C with shaking (70 rpm). Samples were withdrawn at the indicated times, plated on blood agar (trypticase soy agar with 5% sheep blood, Becton-Dickinson) and, following overnight growth at 37°C, colonies were counted to determine CFU/mL.

[13] = test system: E. coli MB2884 (clinical isolate); experiment: Broth microdilution MIC, E. coli MB2884; conditions: Escherichia coli
Description: as §1, §2

[14] = test system: P. aeruginosa MB5919 (PAO1); experiment: Broth microdilution MIC, P. aeruginosa MB5919; conditions: Pseudomonas aeruginosa
Description: as §1, §2

[15] = test system: K. pneumoniae CL15245 (clinical isolate); experiment: Broth microdilution MIC, K. pneumoniae CL15245; conditions: Klebsiella pneumoniae
Description: as §1, §2

| SMILES | MIC [1] | MIC [2] | MIC [3] | MIC [4] | MIC [6] | MIC [8] | MIC (E. coli CIP101 GyrA D87N) | MIC [9] | MIC [10] | MIC (S. aureus (MRSA) COL) | further results |
| --- | --- | --- | --- | --- | --- | --- | --- | --- | --- | --- | --- |
| COc1cc(Cc2cnc(N)nc2N)cc(OC)c1OC [Trimeth-oprim] | 0.0625 µg/mL (≈ 0.215 µM) | 0.0625 µg/mL (≈ 0.215 µM) | 0.0625 µg/mL (≈ 0.215 µM) | 0.0625 µg/mL (≈ 0.215 µM) | 0.0625 µg/mL (≈ 0.215 µM) | 0.125 µg/mL (≈ 0.431 µM) | 0.0625 µg/mL (≈ 0.215 µM) | – | – | – | MIC (E. coli HS151 (ΔtolC); Table 2, HS151, GyrB mutation none): 0.0625 µg/mL (≈ 0.215 µM); MIC [5]: 0.0625 µg/mL (≈ 0.215 µM); MIC [7]: 0.0625 µg/mL (≈ 0.215 µM) |
| O=C(O)c1cn(C2CC2)c2cc(N3CCNCC3)c(F)cc2c1=O [ciprofloxacin] | 0.0039 µg/mL (≈ 0.0118 µM) | – | – | – | – | 0.0039 µg/mL (≈ 0.0118 µM) | 0.0312 µg/mL (≈ 0.0943 µM) | 0.0625 µg/mL (≈ 0.189 µM) | > 0.125 µg/mL | > 0.125 µg/mL | MIC (E. coli HS151 (ΔtolC); Table 3, HS151): 0.004 µg/mL (≈ 0.0121 µM); MIC (E. coli HS151 (qnrVC)): 0.03 µg/mL (≈ 0.0905 µM); MIC (E. coli BW25113 ΔtolC): 0.004 µg/mL (≈ 0.0121 µM); MIC [11]: 0.004 µg/mL (≈ 0.0121 µM); inhibition of macromolecule synthesis [12]: Dose-dependent, selective inhibition of DNA synthesis; culture viability, below lower limit of quantitation (E. coli HS151): < 20 CFU/mL |
| C[C@H]1COc2c(N3CCN(C)CC3)c(F)cc3c(=O)c(C(=O)O)cn1c23 [levofloxacin] | 0.0078 µg/mL (≈ 0.0216 µM) | 0.0078 µg/mL (≈ 0.0216 µM) | 0.0312 µg/mL (≈ 0.0865 µM) | 0.0078 µg/mL (≈ 0.0216 µM) | 0.0078 µg/mL (≈ 0.0216 µM) | – | 0.0625 µg/mL (≈ 0.173 µM) | 0.0156 µg/mL (≈ 0.0432 µM) | 0.125 µg/mL (≈ 0.346 µM) | > 0.125 µg/mL | MIC (E. coli HS151 (ΔtolC); 18 h, Table 1, HS151 E. coli ΔtolC): 0.00195 µg/mL (≈ 0.0054 µM); MIC [13]: 0.0156 µg/mL (≈ 0.0432 µM); MIC [14]: > 0.125 µg/mL; MIC [15]: 0.0156 µg/mL (≈ 0.0432 µM) |
